Source: article PMC7003846, “Effects of the ventilatory stimulant, doxapram on human TASK‐3 (KCNK9, K2P9.1) channels and TASK‐1 (KCNK3, K2P3.1) channels” (Acta Physiologica (Oxford, England), 2019)
Blank lines part the entries; values can stand above or below the molecule they belong to.

Columns and labels:
[1] = target: T1, murTASK-1 (Mus musculus, UniProt O35111); assay: Whole-cell patch clamp on tsA201 cells expressing cloned mouse TASK-1; format: cell-based
T1 construct: expressed in transfected cells; host or cells: tsA201 (modified HEK293), transient transfection, pCS2+
T1 sequence (O35111 whole entry): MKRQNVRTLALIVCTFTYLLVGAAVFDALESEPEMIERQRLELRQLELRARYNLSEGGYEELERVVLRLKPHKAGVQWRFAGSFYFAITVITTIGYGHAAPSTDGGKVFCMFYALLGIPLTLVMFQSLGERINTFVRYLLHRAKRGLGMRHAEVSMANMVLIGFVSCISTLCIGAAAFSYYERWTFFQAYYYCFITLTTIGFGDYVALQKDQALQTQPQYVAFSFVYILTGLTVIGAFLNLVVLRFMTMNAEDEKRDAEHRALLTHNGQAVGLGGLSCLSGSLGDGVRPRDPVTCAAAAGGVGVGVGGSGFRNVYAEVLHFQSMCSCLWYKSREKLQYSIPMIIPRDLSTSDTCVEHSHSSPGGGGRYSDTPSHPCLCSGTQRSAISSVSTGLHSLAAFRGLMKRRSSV
Procedure: (§1) Murine (mur) wild‐type (WT) TASK‐1 (KCNK3, Genbank^TM DQ185133) and WT murTASK‐3 (KCNK9, Genbank^TM AH009585.2) cDNA were cloned into pCS2^+ vector and were a kind gift from William Wisden (Imperial College, UK). Human WT TASK‐1 (Genbank^TM AF006823.1), WT TASK‐3 (Genbank^TM AF212829) and WT TASK‐2 (KCNK5, Genbank^TM AF084830.1) cDNA’s, were cloned into pcDNA3.1^+ vector (Invitrogen) and were a kind gift from Helen Meadows (GlaxoSmithKline).
(§2) All experiments were performed using a modified human embryonic kidney 293 cell line, tsA201 (ECACC; Sigma‐Aldrich), prepared and maintained as previously described.54
(§3) For the electrophysiological experiments, cells were transiently transfected using a modified calcium phosphate protocol, following a process as previously described.54 Vectors cloned with the gene of interest and a similar vector encoding the cDNA for GFP were added to each well at a concentration of 0.5 µg per well, with the exception being for murTASK‐3, where 0.125 µg per well was used.
(§4) Currents were recorded from tsA201 cells transiently transfected with the channel of interest using whole‐cell patch clamp in a voltage clamp configuration and a step‐ramp voltage protocol as previously described.54 Briefly, all experiments were conducted at room temperature (20‐24°C) using an external solution composed of 145 mM of NaCl, 2.5 mM of KCL, 3 mM of MgCl2, 1 mM of CaCl2 and 10 mM of HEPES (pH 7.4, using NaOH) and an intracellular pipette solution composed of 150 mM of KCL, 3 mM of MgCl2, 5 mM of EGTA and 10 mM of HEPES (pH adjusted to 7.4 with KOH). External solution and modulatory compounds were superfused at a rate of 4‐5 mL min^−1. Currents were recorded using an Axopatch 1D patch clamp amplifier (Molecular Devices), filtered at 0.3 kHz, digitized at 1 kHz.
(§5) For analysis of outward current, we measured the current difference between the −80 and −40 mV. The current‐voltage graphs were obtained from the ramp change in voltage between −120 and +20 mV. For each cell, the current amplitude (pA) was normalized to the cell capacitance (pF). The currents obtained were analysed using pCLAMP 10.2 software (Molecular Devices), Microsoft Excel and GraphPad Prism 6 or 7 software. Data were expressed as the mean ± 95% Confidence Intervals (CI), and n represents the number of individual cells. For EC50 calculations, concentration‐response curves were fitted using the Hill equation. Statistical analysis used were one‐way ANOVA with a post‐hoc Dunnett's test or an unpaired/paired Student's t test. Data were considered statistically different if P < .05. The data and statistical analysis comply with the recommendations on experimental design and analysis in pharmacology.55

[2] = target: T2, human TASK-3 (Homo sapiens, UniProt Q9NPC2); assay: Whole-cell patch clamp on tsA201 cells expressing cloned human TASK-3; format: cell-based
T2 construct: expressed in transfected cells; host or cells: tsA201 (modified HEK293), transient transfection, pcDNA3.1+
T2 sequence (Q9NPC2 whole entry): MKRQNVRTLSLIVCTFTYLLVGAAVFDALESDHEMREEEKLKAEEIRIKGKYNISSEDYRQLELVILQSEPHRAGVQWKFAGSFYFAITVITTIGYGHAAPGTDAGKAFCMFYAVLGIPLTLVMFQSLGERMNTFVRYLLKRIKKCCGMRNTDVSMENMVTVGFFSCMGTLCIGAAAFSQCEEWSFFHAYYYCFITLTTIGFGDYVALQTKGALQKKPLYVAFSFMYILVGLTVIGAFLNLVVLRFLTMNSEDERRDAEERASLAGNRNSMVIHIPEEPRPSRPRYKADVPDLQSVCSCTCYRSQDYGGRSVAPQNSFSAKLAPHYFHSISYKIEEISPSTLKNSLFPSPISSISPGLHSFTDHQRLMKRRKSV
Procedure: as §1, §2, §3, §4, §5

[3] = system: rat TASK-3 homodimeric channels; details: cloned rat channels; cited from earlier work
[4] = system: rat TASK-1/TASK-3 heterodimeric channels; details: cloned rat channels; cited from earlier work
[5] = target: T3, murTASK-3/murTASK-1 heterodimer channels (Mus musculus, UniProt O35111+Q3LS21); assay: Whole-cell patch clamp, forced heterodimer murTASK-3/murTASK-1; format: cell-based
T3 construct: expressed in transfected cells; host or cells: tsA201 (modified HEK293), transient transfection
T3 sequence (Q3LS21 whole entry): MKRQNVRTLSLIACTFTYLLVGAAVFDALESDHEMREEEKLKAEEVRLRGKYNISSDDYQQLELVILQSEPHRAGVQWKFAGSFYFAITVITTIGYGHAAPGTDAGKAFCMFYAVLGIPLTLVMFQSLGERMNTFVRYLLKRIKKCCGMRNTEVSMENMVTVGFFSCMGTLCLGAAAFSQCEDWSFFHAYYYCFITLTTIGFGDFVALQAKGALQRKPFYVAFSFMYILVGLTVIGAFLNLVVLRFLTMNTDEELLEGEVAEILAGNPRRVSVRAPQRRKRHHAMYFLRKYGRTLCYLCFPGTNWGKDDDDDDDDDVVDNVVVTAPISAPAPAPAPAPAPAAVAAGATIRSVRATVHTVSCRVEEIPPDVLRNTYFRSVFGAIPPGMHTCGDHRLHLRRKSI
T3 sequence (O35111 whole entry): as the sequence (O35111 whole entry) above
Procedure: as §1
(§6) All experiments were performed using a modified human embryonic kidney 293 cell line, tsA201 (ECACC; Sigma‐Aldrich), prepared and maintained as previously described.54 […]
as §4, with “External solution and modulatory compounds were superfused at a rate of 4‐5 mL min^−1.” left out
(§7) For analysis of outward current, we measured the current difference between the −80 and −40 mV. […]

[6] = target: T4, TASK-3_L122D (Homo sapiens, UniProt Q9NPC2, L122D); assay: Whole-cell patch clamp, human TASK-3 pore mutant L122D; format: cell-based
T4 construct: expressed in transfected cells; host or cells: tsA201 (modified HEK293), transient transfection
T4 sequence (Q9NPC2 whole entry L122D): as the sequence (Q9NPC2 whole entry) above, with L122D counted along it
Text: as §1
(§8) Point mutations (L122D, G236D, L239D, V242D or a stop codon) were introduced by site‐directed mutagenesis into TASK‐3 cDNA using the Quikchange kit (Stratagene) as previously described.54 […]
as §4, with “External solution and modulatory compounds were superfused at a rate of 4‐5 mL min^−1.” left out, “kHz. […]” for “kHz.”

[7] = target: T5, hTASK-3_Δ250 (Homo sapiens, UniProt Q9NPC2); assay: Whole-cell patch clamp, C-terminally truncated human TASK-3; format: cell-based
T5 construct: truncating the channel to remove the C‐terminal of the human TASK‐3 channel (hTASK‐3_Δ250); expressed in transfected cells; host or cells: tsA201 (modified HEK293), transient transfection
T5 sequence (Q9NPC2 1-249 limits assumed, stated change not applied): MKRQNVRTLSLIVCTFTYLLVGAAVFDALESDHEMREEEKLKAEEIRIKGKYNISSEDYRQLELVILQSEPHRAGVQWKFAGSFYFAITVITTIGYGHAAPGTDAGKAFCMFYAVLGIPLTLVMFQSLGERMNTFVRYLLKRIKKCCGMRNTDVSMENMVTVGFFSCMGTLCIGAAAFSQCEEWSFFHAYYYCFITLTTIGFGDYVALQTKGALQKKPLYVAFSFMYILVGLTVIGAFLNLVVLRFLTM
Text: as §1, §8
as §4, with “External solution and modulatory compounds were superfused at a rate of 4‐5 mL min^−1.” left out, “kHz. […]” for “kHz.”

[8] = target: T6, human TASK-2 (Homo sapiens, UniProt O95279); assay: Whole-cell patch clamp on tsA201 cells expressing cloned human TASK-2; format: cell-based; details: acute application, read-out: inhibition of WT TASK-2 current
T6 construct: expressed in transfected cells; host or cells: tsA201 (modified HEK293), transient transfection, pcDNA3.1+
T6 sequence (O95279 1-499): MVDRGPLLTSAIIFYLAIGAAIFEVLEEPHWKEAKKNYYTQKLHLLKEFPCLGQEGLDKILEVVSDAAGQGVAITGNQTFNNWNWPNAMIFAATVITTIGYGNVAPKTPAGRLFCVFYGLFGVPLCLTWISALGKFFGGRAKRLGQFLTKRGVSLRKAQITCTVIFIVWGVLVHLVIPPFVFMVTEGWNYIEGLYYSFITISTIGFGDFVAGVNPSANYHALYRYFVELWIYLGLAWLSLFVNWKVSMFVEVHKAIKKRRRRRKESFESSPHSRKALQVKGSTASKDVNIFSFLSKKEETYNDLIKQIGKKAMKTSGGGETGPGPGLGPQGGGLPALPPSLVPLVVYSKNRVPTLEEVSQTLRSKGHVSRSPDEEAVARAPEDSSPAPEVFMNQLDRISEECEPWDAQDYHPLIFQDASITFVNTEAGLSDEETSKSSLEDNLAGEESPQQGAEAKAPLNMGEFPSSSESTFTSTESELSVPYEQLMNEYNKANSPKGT
Procedure: as §1, §6
as §4, with “External solution and modulatory compounds were superfused at a rate of 4‐5 mL min^−1.” left out
as §7

[9] = target: T7, murTASK-1/murTASK-3 heterodimer channels (Mus musculus, UniProt O35111+Q3LS21); assay: Whole-cell patch clamp, forced heterodimer murTASK-1/murTASK-3; format: cell-based
T7 construct: expressed in transfected cells; host or cells: tsA201 (modified HEK293), transient transfection
T7 sequence (O35111 whole entry): as the sequence (O35111 whole entry) above
T7 sequence (Q3LS21 whole entry): as the sequence (Q3LS21 whole entry) above
Procedure: as §1, §6
as §4, with “External solution and modulatory compounds were superfused at a rate of 4‐5 mL min^−1.” left out
as §7

[10] = target: T8, murTASK-3 (Mus musculus, UniProt Q3LS21); assay: Whole-cell patch clamp on tsA201 cells expressing cloned mouse TASK-3; format: cell-based
T8 construct: expressed in transfected cells; host or cells: tsA201 (modified HEK293), transient transfection, pCS2+
T8 sequence (Q3LS21 whole entry): as above
Procedure: as §1, §2, §3, §4, §5

[11] = target: T9, TASK-3_G236D (Homo sapiens, UniProt Q9NPC2, G236D); assay: Whole-cell patch clamp, human TASK-3 pore mutant G236D; format: cell-based; details: 10 µM (Figure 6C); read-out: percentage inhibition of TASK-3_G236D
T9 construct: expressed in transfected cells; host or cells: tsA201 (modified HEK293), transient transfection
T9 sequence (Q9NPC2 whole entry G236D): as the sequence (Q9NPC2 whole entry) above, with G236D counted along it
Text: as §1, §8
as §4, with “External solution and modulatory compounds were superfused at a rate of 4‐5 mL min^−1.” left out, “kHz. […]” for “kHz.”

[12] = target: T10, human TASK-1 (Homo sapiens, UniProt O14649); assay: Whole-cell patch clamp on tsA201 cells expressing cloned human TASK-1; format: cell-based
T10 construct: expressed in transfected cells; host or cells: tsA201 (modified HEK293), transient transfection, pcDNA3.1+
T10 sequence (O14649 whole entry): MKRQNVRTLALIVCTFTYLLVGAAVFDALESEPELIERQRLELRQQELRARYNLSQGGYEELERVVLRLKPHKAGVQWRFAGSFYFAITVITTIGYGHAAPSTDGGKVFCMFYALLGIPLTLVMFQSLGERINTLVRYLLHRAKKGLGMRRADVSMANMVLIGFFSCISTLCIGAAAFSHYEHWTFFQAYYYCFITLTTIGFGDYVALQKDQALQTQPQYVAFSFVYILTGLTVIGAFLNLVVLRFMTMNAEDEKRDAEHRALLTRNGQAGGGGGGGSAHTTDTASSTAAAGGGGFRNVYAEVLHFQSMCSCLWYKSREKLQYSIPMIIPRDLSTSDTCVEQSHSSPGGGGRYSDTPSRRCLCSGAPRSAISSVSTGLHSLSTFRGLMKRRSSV
Procedure: as §1, §2, §3, §4, §5

[13] = target: T11, TASK-3_V242D (Homo sapiens, UniProt Q9NPC2, V242D); assay: Whole-cell patch clamp, human TASK-3 pore mutant V242D; format: cell-based; details: 10 µM (Figure 6C); read-out: percentage inhibition of TASK-3_V242D
T11 construct: expressed in transfected cells; host or cells: tsA201 (modified HEK293), transient transfection
T11 sequence (Q9NPC2 whole entry V242D): as the sequence (Q9NPC2 whole entry) above, with V242D counted along it
Text: as §1, §8
as §4, with “External solution and modulatory compounds were superfused at a rate of 4‐5 mL min^−1.” left out, “kHz. […]” for “kHz.”

[14] = system: rat TASK-1 homodimeric channels; details: cited from earlier work
[15] = target: T12, TASK-3_L239D (Homo sapiens, UniProt Q9NPC2, L239D); assay: Whole-cell patch clamp, human TASK-3 pore mutant L239D; format: cell-based; details: 10 µM (Figure 6C); read-out: percentage inhibition of TASK-3_L239D
T12 construct: expressed in transfected cells; host or cells: tsA201 (modified HEK293), transient transfection
T12 sequence (Q9NPC2 1-374 L239D): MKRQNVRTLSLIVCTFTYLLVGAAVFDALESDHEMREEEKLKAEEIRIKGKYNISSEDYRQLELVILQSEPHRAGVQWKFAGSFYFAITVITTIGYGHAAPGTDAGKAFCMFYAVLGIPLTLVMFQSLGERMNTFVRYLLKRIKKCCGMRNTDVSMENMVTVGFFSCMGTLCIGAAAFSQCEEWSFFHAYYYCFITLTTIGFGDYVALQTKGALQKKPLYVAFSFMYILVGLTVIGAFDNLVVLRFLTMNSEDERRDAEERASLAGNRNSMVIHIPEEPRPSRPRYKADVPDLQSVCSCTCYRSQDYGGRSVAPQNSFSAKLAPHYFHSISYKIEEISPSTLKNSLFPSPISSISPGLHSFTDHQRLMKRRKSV
Text: as §1, §8
as §4, with “External solution and modulatory compounds were superfused at a rate of 4‐5 mL min^−1.” left out, “kHz. […]” for “kHz.”

[16] = target: T13, murT3_Δ250 (Mus musculus, UniProt Q3LS21); assay: Whole-cell patch clamp, C-terminally truncated mouse TASK-3; format: cell-based
T13 construct: Removal of the carboxy terminal of murTASK‐3 (murT3) attenuates doxapram effect further; expressed in transfected cells; host or cells: tsA201 (modified HEK293), transient transfection
T13 sequence (Q3LS21 1-249 limits assumed, stated change not applied): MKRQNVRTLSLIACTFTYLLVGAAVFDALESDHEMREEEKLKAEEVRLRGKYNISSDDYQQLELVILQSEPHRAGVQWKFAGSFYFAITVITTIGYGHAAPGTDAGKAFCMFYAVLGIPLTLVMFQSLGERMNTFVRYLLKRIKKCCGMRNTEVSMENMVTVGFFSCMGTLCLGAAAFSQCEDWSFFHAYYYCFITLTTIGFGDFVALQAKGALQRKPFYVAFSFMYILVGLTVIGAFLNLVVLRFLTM
Text: as §1, §8
as §4, with “External solution and modulatory compounds were superfused at a rate of 4‐5 mL min^−1.” left out, “kHz. […]” for “kHz.”

[17] = concentration-response 0.3-100 µM

EC50 ([1]; calculated from concentration-response curve, read-out: 50% effective concentration, murTASK-1): 1.5 µM | inhibition at 1 µM ([1]; tsA201, 1 µM, acute application, read-out: current inhibition of murTASK-1): 28% | inhibition at 3 µM ([1]; tsA201, 3 µM, acute application, read-out: current inhibition of murTASK-1): 43% | inhibition at 10 µM ([1]; tsA201, 10 µM, acute application, read-out: current inhibition of murTASK-1): 58% | inhibition of human TASK-3 current ([2]; 10 µM, acute application, WT): 62% | recovery from inhibition of TASK-3 ([2]; 10 µM, washout): faster and more complete | Hill slope, human TASK-3 [2, 17]: 0.8 | inhibition at 10 µM ([2]; tsA201, 10 µM, acute application, WT, read-out: inhibition of human TASK-3 current): 68% | EC50 ([2]; tsA201 cells, whole-cell patch clamp, room temperature, read-out: EC50, inhibition of human TASK-3 current): 2.5 µM | inhibition at 10 µM [5]: 42% | inhibition at 10 µM ([6]; 10 µM (Figure 6C), read-out: percentage inhibition of TASK-3_L122D): 6% | inhibition at 10 µM [7]: 19% | inhibition at 10 µM [8]: 7% | inhibition at 10 µM [9]: 58% | EC50 ([10]; estimated, read-out: 50% effective concentration, murTASK-3): ≥ 100 µM | inhibition at 10 µM ([10]; tsA201, 10 µM, acute application, read-out: current inhibition of murTASK-3): 21% | inhibition at 100 µM ([10]; tsA201, 100 µM, acute application, read-out: current inhibition of murTASK-3): 56% | inhibition at 10 µM [11]: 26% | recovery from inhibition of TASK-1 ([12]; 10 µM, washout): slow and mostly incomplete | Hill slope, human TASK-1 [12, 17]: 0.8 | inhibition at 10 µM ([12]; tsA201, 10 µM, acute application, read-out: inhibition of human TASK-1 current): 55% | EC50 ([12]; tsA201 cells, whole-cell patch clamp, room temperature, read-out: EC50, inhibition of human TASK-1 current): 4 µM | inhibition at 10 µM [13]: 27% | inhibition at 10 µM [15]: 13% | inhibition at 10 µM [16]: 4%
SMILES: CCN1CC(CCN2CCOCC2)C(c2ccccc2)(c2ccccc2)C1=O (stereo not shown) [doxapram, 1‐ethyl‐4‐(2‐morpholinoethyl)‐3,3‐diphenyl‐2‐pyrrolidinone]
EC50 [3]: 37 µM | EC50 [4]: 9 µM | EC50 ([14]; cloned rat channels): 0.41 µM | fold more potent on TASK-1 or heteromultimers of TASK-1 and TASK-3 than on TASK-3 ([14]; rat channels): 90 fold

inhibition of human TASK-3 current ([2]; 100 µM, acute application, WT): 94% | inhibition of TASK-3_L122D ([6]; 100 µM): 87%
SMILES: [Cl-].[Cl-].[Zn+2] [zinc, Zinc Chloride]
